In patent publication US7173023B2, “Bicyclic compounds” (Hoffmann-La Roche Inc., priority 2003, dated 2007):

Columns and labels:
human MAO-B = molecular target: T1, human MAO-B (Homo sapiens, UniProt P27338); experiment: MAO-B enzymatic activity, spectrophotometric assay (tyramine, Amplex Red); format: biochemical; conditions: membranes of EBNA cells transfected with human MAO-B cDNA; 30 min preincubation at 37° C., pH 7.4; substrate tyramine
T1 construct: expressed in transfected cells; host or cells: EBNA cells (transient transfection); cell membranes used
T1 sequence (P27338 1-520): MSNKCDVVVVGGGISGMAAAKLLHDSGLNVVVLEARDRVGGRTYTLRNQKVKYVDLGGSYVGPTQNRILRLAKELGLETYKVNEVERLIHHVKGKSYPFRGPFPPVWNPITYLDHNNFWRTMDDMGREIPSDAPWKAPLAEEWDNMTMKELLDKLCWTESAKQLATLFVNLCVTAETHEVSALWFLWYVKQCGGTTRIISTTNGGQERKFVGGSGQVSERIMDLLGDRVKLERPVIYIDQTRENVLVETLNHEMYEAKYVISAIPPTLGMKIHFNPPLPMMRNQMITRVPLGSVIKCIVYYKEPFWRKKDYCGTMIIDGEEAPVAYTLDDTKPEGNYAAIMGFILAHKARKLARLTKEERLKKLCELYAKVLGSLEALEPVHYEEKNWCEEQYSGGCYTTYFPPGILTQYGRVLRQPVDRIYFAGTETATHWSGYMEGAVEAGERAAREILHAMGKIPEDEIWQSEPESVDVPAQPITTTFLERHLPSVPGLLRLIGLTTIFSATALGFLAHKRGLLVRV
Protocol: (§1) The cDNA's encoding human MAO-A and MAO-B were transiently transfected into EBNA cells using the procedure described by Schlaeger and Christensen [Cytotechnology 15:1–13 (1998)]. After transfection, cells were homogenised by means of a Polytron homogenizer in 20 mM Tris HCl buffer, pH 8.0, containing 0.5 mM EGTA and 0.5 mM phenylmethanesulfonyl fluoride. Cell membranes were obtained by centrifugation at 45,000×g and, after two rinsing step with 20 mM Tris HCl buffer, pH 8.0, containing 0.5 mM EGTA, membranes were eventually re-suspended in the above buffer and aliquots stored at −80° C. until use.
(§2) MAO-A and MAO-B enzymatic activity was assayed in 96-well-plates using a spectrophotometric assay adapted from the method described by Zhou and Panchuk-Voloshina [Analytical Biochemistry 253:169–174 (1997)]. Briefly, membrane aliquots were incubated in 0.1 M potassium phosphate buffer, pH 7.4, for 30 min at 37° C. with or without various concentrations of the compounds. After this period, the enzymatic reaction was started by the addition of the MAO substrate tyramine together with 1 U/ml horse-radish peroxidase (Roche Biochemicals) and 80 μM N-acetyl-3,7,-dihydroxyphenoxazine (Amplex Red, Molecular Probes). The samples were further incubated for 30 min at 37° C. in a final volume of 200 μl and absorbance was then determined at a wavelength of 570 nm using a SpectraMax plate reader (Molecular Devices). Background (non-specific) absorbance was determined in the presence of 10 μM clorgyline for MAO-A or 10 μM L-deprenyl for MAO-B.
(§3) IC50 values were determined from inhibition curves obtained using nine inhibitor concentrations in duplicate, by fitting data to a four parameter logistic equation using a computer program.

human MAO-A = molecular target: T2, human MAO-A (Homo sapiens, UniProt P21397); experiment: MAO-A enzymatic activity, spectrophotometric assay (tyramine, Amplex Red); format: biochemical; conditions: membranes of EBNA cells transfected with human MAO-A cDNA; 30 min preincubation at 37° C., pH 7.4; substrate tyramine
T2 construct: expressed in transfected cells; host or cells: EBNA cells (transient transfection); cell membranes used
T2 sequence (P21397 1-527): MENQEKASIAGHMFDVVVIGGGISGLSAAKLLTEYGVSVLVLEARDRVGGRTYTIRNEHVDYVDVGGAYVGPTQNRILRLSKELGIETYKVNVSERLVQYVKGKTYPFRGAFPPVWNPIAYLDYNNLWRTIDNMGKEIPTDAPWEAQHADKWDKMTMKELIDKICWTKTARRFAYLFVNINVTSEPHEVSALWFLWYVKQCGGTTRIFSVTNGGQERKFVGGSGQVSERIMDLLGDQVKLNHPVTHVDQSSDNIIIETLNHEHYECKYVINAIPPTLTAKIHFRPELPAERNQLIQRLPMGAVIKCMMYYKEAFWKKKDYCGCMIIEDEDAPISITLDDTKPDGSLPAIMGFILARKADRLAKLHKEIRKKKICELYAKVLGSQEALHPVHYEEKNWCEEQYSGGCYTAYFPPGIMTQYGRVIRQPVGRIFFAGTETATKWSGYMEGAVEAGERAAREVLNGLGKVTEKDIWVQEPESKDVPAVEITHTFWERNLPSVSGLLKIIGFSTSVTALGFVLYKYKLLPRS
Protocol: as §1, §2, §3

SMILES	IC50 (human MAO-B)	IC50 (human MAO-A)
CC(=O)N1CCc2ccc(OCc3cccc(F)c3)cc2CC1 [Example 1, 1-[7-(3-Fluoro-benzyloxy)-1,2,4,5-tetrahydro-benzo[d]azepin-3-yl]-ethanone]	0.082 µM	> 10 µM
COCC(=O)N1CCc2ccc(OCc3cccc(F)c3)cc2CC1 [Example 2, 1-[7-(3-Fluoro-benzyloxy)-1,2,4,5-tetrahydro-benzo[d]azepin-3-yl]-2-methoxy-ethanone]	0.073 µM	5.5 µM
CN1C=Cc2ccc(OCc3cccc(F)c3)cc2CC1=O [Example 13, 8-(3-Fluoro-benzyloxy)-3-methyl-1,3-dihydro-benzo[d]azepin-2-one]	0.15 µM	4.6 µM
CC(=O)N1C=Cc2ccc(OCc3cccc(F)c3)cc2CC1=O [Example 15, 3-Acetyl-8-(3-fluoro-benzyloxy)-1,3-dihydro-benzo[d]azepin-2-one]	0.13 µM	> 9.5 µM

Molecules with a lower IC50 (human MAO-B), results first:

IC50 (human MAO-B)	IC50 (human MAO-A)	SMILES
0.024 µM	> 10 µM	NC(=O)C(=O)N1CCc2ccc(OCc3cccc(F)c3)cc2CC1 [Example 3, 2-[7-(3-Fluoro-benzyloxy)-1,2,4,5-tetrahydro-benzo[d]azepin-3-yl]-2-oxo-acetamide]
0.068 µM	4.5 µM	COC(=O)N1CCc2ccc(OCc3cccc(F)c3)cc2CC1 [Example 5, 7-(3-Fluoro-benzyloxy)-1,2,4,5-tetrahydro-benzo[d]azepine-3-carboxylic Acid Methyl Ester]
0.007 µM	4.1 µM	O=CN1CCc2ccc(OCc3cccc(F)c3)cc2CC1 [Example 6, 7-(3-Fluoro-benzyloxy)-1,2,4,5-tetrahydro-benzo[d]azepine-3-carbaldehyde]
0.021 µM	> 10 µM	NC(=O)N1CCc2ccc(OCc3cccc(F)c3)cc2CC1 [Example 8, 7-(3-Fluoro-benzyloxy)-1,2,4,5-tetrahydro-benzo[d]azepine-3-carboxylic Acid Amide]
